Where two headings read alike, the source gives them in different places.
Assays:
[1] = biological target: T1, rat A2A receptors (Rattus norvegicus, UniProt P30543); test: Displacement of [3H]CGS 21680 binding to A2A receptors in rat striatal membranes; settings: for Ki: read-out: Ki rA2A
T1 construct: to A2A receptors from rat striatal membranes; from tissue; host or cells: rat striatal membranes
Description: (§1) All nonradioactive compounds were initially dissolved in DMSO and diluted with buffer to the final concentration, where the amount of DMSO never exceeded 2%. Incubations were terminated by rapid filtration over Whatman GF/B filters using a Brandell cell harvester. The tubes were rinsed three times with 3 mL buffer each.
(§2) At least six different concentrations of competitor, spanning 3 orders of magnitude adjusted appropriately for the IC50 value of each compound, were used. IC50 values, calculated with the nonlinear regression method implemented in Graph-Pad Prism (San Diego, CA) were converted to apparent Ki values as described by [Linden [1982]]. Hill coefficients of the tested compounds were in the range of 0.8–1.1.
(§3) At A2B receptors, two radioligand binding assays (Table 1) were used. Ki values of xanthine derivatives were determined in displacement of binding of the non-selective radioligands […], 8 (4-(2-[7-amino-2-{furyl}{1,2,4}triazolo{2,3-a}{1,3,5}tr nzyl)-8-phenyloxyacetate-1-propyl-xanthine), at human A2B receptors expressed in HEK-293 cell membranes [[Linden and Jacobson, 1998]]. In order to evaluate selectivity, selected derivatives were subjected to standard binding assays at A1, A2A, and A3 receptors. The initial screening utilized rat brain A1/A2A receptors (with radioligands [^3H]R-PIA and [^3H]CGS-21680), and selected compounds were examined at the recombinant human subtypes (Table 1), using [^3H]CPX ([^3H]8-cyclopentyl-1,3-dipropylxanthine) and ^125I-ZM 241385, ^125I-4-(2-[7-amino-2-[2-furyl][1,2,4]triazolo[2,3-a][1,3,5]triazin-5-yl-amino]ethyl)phenol) [[Palmer et al., 1996]].

[2] = biological target: T2, human A1 receptors (Homo sapiens, UniProt P30542); test: Binding at recombinant human A1 receptors expressed in HEK-293 cells vs [3H]CPX; settings: recombinant human A1 in HEK-293 cells
T2 construct: expressed in transfected cells; host or cells: HEK-293
T2 sequence (P30542 1-326): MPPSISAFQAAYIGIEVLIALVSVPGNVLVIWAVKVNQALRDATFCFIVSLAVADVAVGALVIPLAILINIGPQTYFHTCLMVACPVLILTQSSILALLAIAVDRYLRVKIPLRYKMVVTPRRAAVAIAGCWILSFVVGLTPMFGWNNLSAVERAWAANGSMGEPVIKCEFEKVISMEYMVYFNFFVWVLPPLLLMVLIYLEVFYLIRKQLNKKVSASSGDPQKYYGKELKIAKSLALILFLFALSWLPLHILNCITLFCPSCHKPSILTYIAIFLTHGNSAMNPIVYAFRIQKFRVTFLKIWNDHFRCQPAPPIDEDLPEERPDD
Description: as §1, §2, §3

[3] = biological target: T3, human A2B receptors (Homo sapiens, UniProt P29275); test: Binding at human A2B receptors expressed in HEK-293 cells vs [3H]ZM241385; settings: for rA1/hA2B: ratio of Ki rat A1 to Ki human A2B
T3 construct: expressed in transfected cells; host or cells: HEK-293
T3 sequence (P29275 1-332): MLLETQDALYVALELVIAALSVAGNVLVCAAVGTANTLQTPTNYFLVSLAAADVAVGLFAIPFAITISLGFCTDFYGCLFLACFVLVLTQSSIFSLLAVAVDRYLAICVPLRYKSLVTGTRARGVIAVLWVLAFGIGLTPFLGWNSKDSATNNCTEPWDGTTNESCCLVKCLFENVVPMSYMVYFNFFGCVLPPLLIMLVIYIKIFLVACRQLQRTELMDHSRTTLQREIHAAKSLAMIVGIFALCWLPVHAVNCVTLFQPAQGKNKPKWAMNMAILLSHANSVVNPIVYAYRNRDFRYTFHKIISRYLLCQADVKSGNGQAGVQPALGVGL
Description: The plasmid was amplified in competent JM109 cells and plasmid DNA isolated using Wizard Megaprep columns (Promega Corp., Madison, WI).
Colonies were selected by growth of cells in 0.6 mg/mL G418. Transfected cells were maintained in DMEM supplemented with Hams F12 nutrient mixture (1/1), 10% newborn calf serum, 2 mM glutamine, and containing 50 IU/mL penicillin, 50 μg/mL streptomycin, and 0.2 mg/mL Geneticin (G418, Boehringer Mannheim, Indianapolis, IN).
Confluent monolayers of HEK-A2B cells were washed with PBS followed by ice-cold Buffer A (10 mM HEPES, 10 mM EDTA, pH 7.4) with protease inhibitors ([…] benzamidine, […], and […] of each aprotinin, pepstatin, and leupeptin). The cells were homogenized in a Polytron (Brinkmann) for 20 sec, centrifuged at 30,000g, and the pellets washed twice with buffer HE (10 mM HEPES, 1 mM EDTA, pH 7.4 with protease inhibitors). The final pellet was resuspended in buffer HE, supplemented with 10% sucrose and frozen in aliquots at −80°C. For binding assays, membranes were thawed and diluted 5–10-fold with HE to a final protein concentration of approximately 1 mg/mL. […] After incubating for 20 min at room temperature, 50 mL of 10 mg/mL Na-metabisulfite in water was added the quench the reaction. The reaction products were applied to a C18 HPLC column using 4 mM phosphate, pH 6.0/methanol. […] The incubation time was 3 h at 21°C. […] Membranes were filtered on Whatman GF/C filters using a Brandell cell harvester (Gaithersburg, MD) and washed three times over 15–20 sec with ice-cold buffer (10 mM Tris, 1 mM MgCl2, pH 7.4). […] Data from replicate experiments are tabulated as means ± SEM.
At A2B receptors, two radioligand binding assays (Table 1) were used. […] In order to evaluate selectivity, selected derivatives were subjected to standard binding assays at A1, A2A, and A3 receptors.

[4] = biological target: T4, human A2A receptors (Homo sapiens, UniProt P29274); test: Binding at recombinant human A2A receptors expressed in HEK-293 cells vs [125I]ZM241385; settings: recombinant human A2A in HEK-293 cells, read-out: Ki A2A (h) (converted)
T4 construct: expressed in transfected cells; host or cells: HEK-293
T4 sequence (P29274 whole entry): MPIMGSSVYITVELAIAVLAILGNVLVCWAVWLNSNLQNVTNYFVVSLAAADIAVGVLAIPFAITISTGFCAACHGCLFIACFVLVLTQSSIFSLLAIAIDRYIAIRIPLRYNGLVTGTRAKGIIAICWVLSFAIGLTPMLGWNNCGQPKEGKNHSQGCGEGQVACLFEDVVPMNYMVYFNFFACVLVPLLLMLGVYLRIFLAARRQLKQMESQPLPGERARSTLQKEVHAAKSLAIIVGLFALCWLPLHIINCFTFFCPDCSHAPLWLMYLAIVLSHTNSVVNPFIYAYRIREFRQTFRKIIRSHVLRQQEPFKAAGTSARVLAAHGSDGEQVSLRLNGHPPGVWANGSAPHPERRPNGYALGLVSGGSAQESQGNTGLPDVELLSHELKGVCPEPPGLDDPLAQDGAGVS
Description: as §1, §2, §3

[5] = biological target: T5, rat A1 receptors (Rattus norvegicus, UniProt P25099); test: Displacement of [3H]R-PIA binding to A1 receptors in rat brain membranes; settings: read-out: Ki rA1
T5 construct: to A1 receptors from rat cerebral cortical membranes; from tissue; host or cells: rat cerebral cortical membranes
T5 sequence (P25099 1-326): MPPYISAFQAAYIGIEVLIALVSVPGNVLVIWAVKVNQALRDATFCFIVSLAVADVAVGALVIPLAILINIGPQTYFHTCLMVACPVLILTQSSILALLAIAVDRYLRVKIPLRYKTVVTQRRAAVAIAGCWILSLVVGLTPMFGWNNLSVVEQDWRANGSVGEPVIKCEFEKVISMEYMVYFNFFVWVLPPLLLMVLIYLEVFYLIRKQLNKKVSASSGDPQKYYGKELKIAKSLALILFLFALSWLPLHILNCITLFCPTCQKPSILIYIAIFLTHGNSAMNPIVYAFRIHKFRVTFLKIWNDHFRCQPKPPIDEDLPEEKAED
Description: as §1, §2, §3

[6] = HEK-293 cells, vs [3H]ZM241385, read-out: Ki hA2B

T1 sequence (P30543 whole entry): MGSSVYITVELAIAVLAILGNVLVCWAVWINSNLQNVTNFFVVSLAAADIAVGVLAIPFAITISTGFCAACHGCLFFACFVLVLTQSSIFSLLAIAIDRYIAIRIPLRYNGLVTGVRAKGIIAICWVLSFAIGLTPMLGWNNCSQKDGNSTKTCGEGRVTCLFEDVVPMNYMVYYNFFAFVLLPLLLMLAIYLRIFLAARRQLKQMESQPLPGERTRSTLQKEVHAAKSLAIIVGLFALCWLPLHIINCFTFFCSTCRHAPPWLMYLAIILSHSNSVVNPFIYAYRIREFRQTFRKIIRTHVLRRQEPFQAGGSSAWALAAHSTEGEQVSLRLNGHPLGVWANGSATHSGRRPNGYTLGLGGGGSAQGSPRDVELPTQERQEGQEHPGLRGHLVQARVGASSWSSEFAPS

Row | SMILES | Ki [1] [nM] | Ki [2] [nM] | Ki [3, 6] [nM] | rA1/hA2B [3] | Ki [4] [nM] | % displacement rA2A ([1]; rat striatal membranes, [3H]CGS 21680, at 10^−4) [%] | Ki [5] [nM] | selectivity for human A2B vs. human A1 receptors ([3]; human A2B vs human A1) [fold] | selectivity for human A2B vs. human A2A receptors ([3]; human A2B vs human A2A) [fold] | selectivity for human A2B vs. human A3 receptors ([3]; human A2B vs human A3) [fold] | Ki ([3]; rounded values given in text, read-out: Ki at human A2B receptors) [nM]
1 | CCCn1c(=O)[nH]c(=O)c2[nH]c(-c3ccc(OCC(=O)NN4C(=O)C(C)=C(C)C4=O)cc3)nc21 [Compound 15, 8-[4-[(Carboxymethyl)oxy]phenyl]-1H-3-(n-propyl)xanthine N,N-[(1,2-Dimethyl)maleyl]hydrazide] |  | 8080 | 1800 | 2.0 | 5480 | 36 ± 4 | 3590 |  |  |  | 
2 | CCCn1c(=O)c2[nH]c(-c3ccc(OCC(=O)NN4C(=O)c5ccccc5C4=O)cc3)nc2n(CCC)c1=O [Compound 21, 8-[4-[(Carboxymethyl)oxy]phenyl]-1,3-di-(n-propyl)xanthine N,N-Phthaloylhydrazide] | 392 ± 117 | 210 | 64.4 ± 0.8 | 0.41 | 359 |  | 26.3 ± 2.3 |  |  |  | 
3 | CCCn1c(=O)c2[nH]c(-c3ccc(OCC(=O)NNC(=O)CCC(=O)O)cc3)nc2n(CCC)c1=O [Compound 9, 8-[4-[(Carboxymethyl)oxy]phenyl]-1,3-di-(n-propyl)xanthine N-[(3-Carboxy)-n-propionyl]hydrazide] | 174 ± 32 | 219 | 116 ± 10 |  | 795 |  | 73.3 ± 22 |  |  |  | 
4 | CCCn1c(=O)c2[nH]c(-c3ccc(OCC(=O)NN4C(=O)C(C)=C(C)C4=O)cc3)nc2n(CCC)c1=O [Compound 14, 8-[4-[(Carboxymethyl)oxy]phenyl]-1,3-di-(n-propyl)xanthine N,N-[(1,2-Dimethyl)maleyl]hydrazide] | 126 ± 41 | 3030 | 19.4 ± 6.2 | 0.57 | 1970 |  | 11.1 ± 2.4 | 160 | 100 | 35 | 19

Results, then the compound that gave them:

Row | Ki [1] [nM] | Ki [2] [nM] | Ki [3, 6] [nM] | rA1/hA2B [3] | Ki [4] [nM] | % displacement rA2A ([1]; rat striatal membranes, [3H]CGS 21680, at 10^−4) [%] | Ki [5] [nM] | selectivity for human A2B vs. human A1 receptors ([3]; human A2B vs human A1) [fold] | selectivity for human A2B vs. human A2A receptors ([3]; human A2B vs human A2A) [fold] | selectivity for human A2B vs. human A3 receptors ([3]; human A2B vs human A3) [fold] | Ki ([3]; rounded values given in text, read-out: Ki at human A2B receptors) [nM] | SMILES
5 | 128 ± 15 | 203 | 18.7 ± 0.5 | 2.8 | 342 |  |  |  |  |  |  | CCCn1c(=O)c2[nH]c(-c3ccc(OCC(=O)OCC)cc3)nc2n(CCC)c1=O [Compound 4b]
6 | 227 ± 64 | 125 | 65.4 ± 6.5 | 0.10 | 186 |  | 6.51 ± 1.24 |  |  |  |  | CCCn1c(=O)c2[nH]c(-c3ccc(OCC(=O)NNC(C)=O)cc3)nc2n(CCC)c1=O [Compound 4e, 8-[4-[(Carboxymethyl)oxy]phenyl]-1,3-di-(n-propyl)xanthine N-Acetylhydrazide]

— PMC9196953 (Drug development research, 1999)
